Consider 77 sequences from the supplement of paper PMC11208160.

The nature of this series: recombinant barcode read abundance after kanamycin selection (control-corrected) (log10(CPM+1)); higher = more efficient recombination; sequences stand for … in AGTGCAGAGAAAATCGGCCAGTTTTCTCTGCCTGCAGTCCGCATGCCGT…AGATTTATGCAGCGGACTGCCTTTCTCCCAAAGTGATAAACCGGACAGTATCATGGACCGGTTTTCCCGGTAATCCGTATTTGCAAGGTTGGTTTCACT; site = the 11-nt target. The method, boiled down: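 Two replicates per condition were plated: chloramphenicol/ampicillin LB agar for the control, and chloramphenicol/ampicillin/kanamycin with 0.1 mM IPTG for selection. The pooled E. coli screen behind them paired targets with IS621 bridge RNA target-binding loops. Recombination efficiency is expressed from averaged, control-corrected barcode counts per million at recombinant junctions, as log10(CPM+1).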
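Also: IS621 recombinase and bridge RNA in Escherichia coli cells.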

In the case of “TAAGGTCCTTGGGTTCTAACCTGTTGCTT (site TAAGGTCCTAA)”, the “recombinant barcode read abundance (log10)” value worked out at 1.49.
On to “TAAGTACCTTGGGTTCTAACCTGTTGCCT (site AAAGTACCTAG)”, for which the “recombinant barcode read abundance (log10)” value worked out at 1.12.
The value for “TAAGTACCTTGGGTTCTAACCTGTTGCCT (site CAAGTACCTAG)” was 0.517; that for “TAAGTACCTTGGGTTCTAACCTGTTGCCT (site GAAGTACCTAG)” was 0.029.
The value for “TAAGTACCTTGGGTTCTAACCTGTTGCCT (site TAAGTACCTAG)” was 1.88; that for “TAATATTCTTGGGTTCTAACCTGTTGCCT (site TAATATTCTAG)” was 0.0128.
As to “TAATATTCTTGGGTTCTAACCTGTTGCCT (site TAGGATTCTAG)”, the “recombinant barcode read abundance (log10)” value came to 0.041.
The value for “TAATCCTCTTGGGTTCTAACCTGTTGCCT (site AAATCCTCTAG)” was 0.984; that for “TAATCCTCTTGGGTTCTAACCTGTTGCCT (site CAATCCTCTAG)” was 0.0292.
As for “TAATCCTCTTGGGTTCTAACCTGTTGCCT (site GAATCCTCTAG)”, the “recombinant barcode read abundance (log10)” value came to 0.0754.
Consider “TAATCCTCTTGGGTTCTAACCTGTTGCCT (site TAATCCTCTAG)”, for which the “recombinant barcode read abundance (log10)” value amounted to 1.3.
The value for “TAATCGACTTGGGTTCTAACCTGTTGCCT (site TAATCGACTAG)” was 0.102.
As to “TAATCGACTTGGGTTCTAACCTGTTGCCT (site TAATCGCCTAG)”, the “recombinant barcode read abundance (log10)” value came to 0.643.
The value for “TAATCGACTTGGGTTCTAACCTGTTGCCT (site TAATCGGCTAG)” was 0; that for “TAATCGACTTGGGTTCTAACCTGTTGCCT (site TAATCGTCTAG)” was 0.0431.
The value for “TAATGGCCTTGGGTTCTAACCTGTTGCGA (site ATGAACACTCA)” was 0.0388.
The value for “TAATGGCCTTGGGTTCTAACCTGTTGCGA (site TAATGGCCTTC)” was 0.942; that for “TAATGTACTTGGGTTCTAACCTGTTGCCT (site TAATGAACTAG)” was 0.125; that for “TAATGTACTTGGGTTCTAACCTGTTGCCT (site TAATGTACTAG)” was 0.556.
For “TAATTAGCTTGGGTTCTAACCTGTTGCCT (site TAAATAGCTAG)”, the “recombinant barcode read abundance (log10)” value amounted to 0.0142.
The value for “TAATTAGCTTGGGTTCTAACCTGTTGCCT (site TAATTAGCTAG)” was 0.435; that for “TACAAGACTTGGGTTCTAACCTGTTGCGT (site GGACCCTCTGT)” was 0.168.
The value for “TACAAGACTTGGGTTCTAACCTGTTGCGT (site TACAAGACTAC)” was 1.36.
The value for “TACAAGTCTTGGGTTCTAACCTGTTGCCT (site CTACGACCTCC)” was 0.289; that for “TACAAGTCTTGGGTTCTAACCTGTTGCCT (site TACAAGTCTAG)” was 0.625.
For “TACAGACCTTGGGTTCTAACCTGTTGCCT (site AACAGACCTAG)”, the “recombinant barcode read abundance (log10)” value was 0.11.
The value for “TACAGACCTTGGGTTCTAACCTGTTGCCT (site CACAGACCTAG)” was 0.197.
As for “TACAGACCTTGGGTTCTAACCTGTTGCCT (site GACAGACCTAG)”, the “recombinant barcode read abundance (log10)” value came to 0.065.
The value for “TACAGACCTTGGGTTCTAACCTGTTGCCT (site TACAGACCTAG)” was 1.11; that for “TACAGCTCTTGGGTTCTAACCTGTTGCTT (site TACAGCTCTAA)” was 0.016; that for “TACAGCTCTTGGGTTCTAACCTGTTGCTT (site TACCGCTCTAA)” was 0.104.
The value for “TACAGCTCTTGGGTTCTAACCTGTTGCTT (site TACGGCTCTAA)” was 0.0374; that for “TACAGCTCTTGGGTTCTAACCTGTTGCTT (site TACTGCTCTAA)” was 0.107; that for “TACATCCCTTGGGTTCTAACCTGTTGCCC (site TACATCCCTAG)” was 0.41.
The value for “TACATCCCTTGGGTTCTAACCTGTTGCCC (site TACATCCCTCG)” was 0.111; that for “TACATCCCTTGGGTTCTAACCTGTTGCCC (site TACATCCCTGG)” was 0.646.
For the sequence “TACATCCCTTGGGTTCTAACCTGTTGCCC (site TACATCCCTTG)”, the “recombinant barcode read abundance (log10)” value amounted to 0.0347.
As to “TACCATTCTTGGGTTCTAACCTGTTGCTT (site TACAGTTCTAA)”, the “recombinant barcode read abundance (log10)” value worked out at 0.0331.
The value for “TACCATTCTTGGGTTCTAACCTGTTGCTT (site TACCATTCTAA)” was 0.239; that for “TACCCACCTTGGGTTCTAACCTGTTGCCT (site AACCCACCTAG)” was 0.295.
The value for “TACCCACCTTGGGTTCTAACCTGTTGCCT (site CACCCACCTAG)” was 0.169; that for “TACCCACCTTGGGTTCTAACCTGTTGCCT (site GACCCACCTAG)” was 0.262.
The value for “TACCCACCTTGGGTTCTAACCTGTTGCCT (site TACCCACCTAG)” was 1.47; that for “TACCCATCTTGGGTTCTAACCTGTTGCCT (site TAACCATCTAG)” was 0.0921.
As for “TACCCATCTTGGGTTCTAACCTGTTGCCT (site TACCCATCTAG)”, the “recombinant barcode read abundance (log10)” value came out at 0.862.
As to “TACCCATCTTGGGTTCTAACCTGTTGCCT (site TAGCCATCTAG)”, the “recombinant barcode read abundance (log10)” value stood at 0.106.
The value for “TACCCATCTTGGGTTCTAACCTGTTGCCT (site TATCCATCTAG)” was 0.0366; that for “TACCCGACTTGGGTTCTAACCTGTTGCCT (site TACCAGACTAG)” was 0.0911; that for “TACCCGACTTGGGTTCTAACCTGTTGCCT (site TACCCGACTAG)” was 1.41.
The value for “TACCCGACTTGGGTTCTAACCTGTTGCCT (site TACCGGACTAG)” was 0.178.
The value for “TACCCGACTTGGGTTCTAACCTGTTGCCT (site TACCTGACTAG)” was 0.00741; that for “TACCCGCCTTGGGTTCTAACCTGTTGCCT (site TACCCGCCTAG)” was 0.838.
As to “TACCCGCCTTGGGTTCTAACCTGTTGCCT (site TCCCCGGCTAG)”, the “recombinant barcode read abundance (log10)” value was 0.206.
The value for “TACCCTACTTGGGTTCTAACCTGTTGCAT (site TACACTACTAT)” was 0.0106.
The value for “TACCCTACTTGGGTTCTAACCTGTTGCAT (site TACCCTACTAT)” was 0.654.
The value for “TACCGCCCTTGGGTTCTAACCTGTTGCGT (site GGAAAGACTGT)” was 0.166.
On to “TACCGCCCTTGGGTTCTAACCTGTTGCGT (site TACCGCCCTAC)”, for which the “recombinant barcode read abundance (log10)” value was found to be 1.95.
The value for “TACCGGACTTGGGTTCTAACCTGTTGCGT (site TACCGGACTAC)” was 2.13; that for “TACCGGACTTGGGTTCTAACCTGTTGCGT (site TACCGGCCTAA)” was 0.0831.
Consider “TACCGTTCTTGGGTTCTAACCTGTTGCCT (site TAACGTTCTAG)”, for which the “recombinant barcode read abundance (log10)” value turned out to be 0.
As to “TACCGTTCTTGGGTTCTAACCTGTTGCCT (site TACCGTTCTAG)”, the “recombinant barcode read abundance (log10)” value was determined as 0.41.
The value for “TACGAATCTTGGGTTCTAACCTGTTGCCG (site TACGAATCTAG)” was 0.235.
The value for “TACGAATCTTGGGTTCTAACCTGTTGCCG (site TACGAATCTCG)” was 0.465.
The value for “TACGAGGCTTGGGTTCTAACCTGTTGCCT (site TACGAGGCTAG)” was 0.406.
Turning to “TACGAGGCTTGGGTTCTAACCTGTTGCCT (site TACGCGGCTAG)”, the “recombinant barcode read abundance (log10)” value came out at 0.0314.
The value for “TACGAGGCTTGGGTTCTAACCTGTTGCCT (site TACGGGGCTAG)” was 0.0616.
The value for “TACGAGGCTTGGGTTCTAACCTGTTGCCT (site TACGTGGCTAG)” was 0.0666; that for “TACGCTCCTTGGGTTCTAACCTGTTGCAT (site TACGCTCCTAA)” was 0.053.
The value for “TACGCTCCTTGGGTTCTAACCTGTTGCAT (site TACGCTCCTAC)” was 0.0178; that for “TACGCTCCTTGGGTTCTAACCTGTTGCAT (site TACGCTCCTAG)” was 0.284.
Take “TACGCTCCTTGGGTTCTAACCTGTTGCAT (site TACGCTCCTAT)”: the “recombinant barcode read abundance (log10)” value stood at 0.785.
The value for “TACGCTCCTTGGGTTCTAACCTGTTGCTT (site TACGCTCCTAA)” was 0.243.
The value for “TACGCTCCTTGGGTTCTAACCTGTTGCTT (site TACGCTCCTAC)” was 0.176.
The value for “TACGCTCCTTGGGTTCTAACCTGTTGCTT (site TACGCTCCTAG)” was 0.0812; that for “TACGCTCCTTGGGTTCTAACCTGTTGCTT (site TACGCTCCTAT)” was 0.017; that for “TACTATACTTGGGTTCTAACCTGTTGCCT (site TACTATACTAG)” was 0.181.
Take “TACTATACTTGGGTTCTAACCTGTTGCCT (site TACTATCCTAG)”: the “recombinant barcode read abundance (log10)” value came out at 0.131.
